Measurements taken from PMC8635623, “A click chemistry approach to pleuromutilin derivatives, evaluation of anti-MRSA activity and elucidation of binding mode by surface plasmon resonance and molecular docking” (Journal of Enzyme Inhibition and Medicinal Chemistry, 2021).
≈ marks a conversion by molar mass, not a printed value.

How the values were obtained:
Experiment in all cases: MIC/MBC by broth micro dilution
MRSA ATCC 43300 = format: cell-based, methicillin-resistant S. aureus; details: Staphylococcus aureus; for MIC: 37 °C, 24 h, read-out: MIC; for MBC: lowest concentration reducing viable counts by 99.9%
Method: (§1) All the synthesised 1,2,3-triazole linked pleuromutilin analogues were screened for in vitro antibacterial activities against methicillin-resistant S. aureus (ATCC 43300), S. aureus (ATCC 29213), and two clinical strains of S. aureus (AD3 and 144, isolated from Guangdong Province, China). The MICs and MBCs of the synthesised pleuromutilin derivatives along with pleuromutilin and tiamulin used as the reference antibacterial drugs, were determined by the broth micro dilution methods according to the Clinical and Laboratory Standards Institute (CLSI)[18].
(§2) The MIC of these novel pleuromutilin derivatives against methicillin-resistant S. aureus (ATCC 43300), S. aureus (ATCC 29213), S. aureus (AD3) and S. aureus (144) were determined by using pleuromutilin and tiamulin as positive control. MIC values were determined by the broth micro dilution methods in accordance with the Clinical and Laboratory Standards Institute (2012). Stock solutions of these compounds were dissolved in methanol to make a stock solution with a concentration of 1280 µg/mL. The working solutions (640 µg/mL) were obtained by diluting stock solutions in sterile Mueller-Hinton (MH) broth. The bacterial solution and solutions of these compounds with a final concentration of 0.016–32 µg/mL were distributed into 96-well plates, with a total volume of 200 µL. Three parallel experiments for each compound concentration. The plates were incubated at 37 °C for 24 h.
(§3) MBC values were determined according to CLSI (2003) and previously report with slightly modification[18]^,[28]^,[31]. After obtaining the MIC results, the 96-well plates were incubated at 37 °C for 24 h. 100 µL of the bacterial solution from the wells with no visible growth was inoculated on MH agar plates. The MH agar plates were incubated at 37 °C for colony count. The MBC was determined as the lowest concentration of compound, which reduces the viable counts for 99.9%.

S. aureus 144 = format: cell-based; details: Staphylococcus aureus, S. aureus 144 (clinical strain); for MIC: 37 °C, 24 h; for MBC: lowest concentration reducing viable counts by 99.9%
Method: as §1, §2, §3

S. aureus AD3 = format: cell-based; details: Staphylococcus aureus, S. aureus AD3 (clinical strain); for MIC: 37 °C, 24 h; for MBC: lowest concentration reducing viable counts by 99.9%
Method: as §1, §2, §3

S. aureus ATCC 29213 = format: cell-based; details: Staphylococcus aureus; for MIC: ATCC29213, 37 °C, 24 h; for MBC: ATCC29213, lowest concentration reducing viable counts by 99.9%
Method: as §1, §2, §3

Row | SMILES | MIC (MRSA ATCC 43300) | MBC (MRSA ATCC 43300) | MIC (S. aureus 144) | MBC (S. aureus 144) | MIC (S. aureus AD3) | MBC (S. aureus AD3) | MIC (S. aureus ATCC 29213) | MBC (S. aureus ATCC 29213)
1 | C=C[C@]1(C)C[C@@H](OC(=O)Cn2cc(CN3CCN(c4ccccc4OC)CC3)nn2)[C@]2(C)[C@H](C)CC[C@]3(CCC(=O)[C@H]32)[C@@H](C)[C@@H]1O [Compound 59, 22-(2-(4-(4-(2-Methoxyphenyl)-piperazin-1-yl)-methyl)-1H-1,2,3-triazol-1-yl)-22-deoxy pleuromutilin] | 4 µg/mL (≈ 6.31 µM) | 4 µg/mL (≈ 6.31 µM) | 8 µg/mL (≈ 12.6 µM) | 16 µg/mL (≈ 25.2 µM) | 4 µg/mL (≈ 6.31 µM) | 16 µg/mL (≈ 25.2 µM) | 8 µg/mL (≈ 12.6 µM) | 8 µg/mL (≈ 12.6 µM)
2 | C=C[C@]1(C)C[C@@H](OC(=O)Cn2cc(CN3CCN(c4cccc(OC)c4)CC3)nn2)[C@]2(C)[C@H](C)CC[C@]3(CCC(=O)[C@H]32)[C@@H](C)[C@@H]1O [Compound 60, 22-(2-(4-(4-(3-Methoxyphenyl)-piperazin-1-yl)-methyl)-1H-1,2,3-triazol-1-yl)-22-deoxy pleuromutilin] | 4 µg/mL (≈ 6.31 µM) | 8 µg/mL (≈ 12.6 µM) | 8 µg/mL (≈ 12.6 µM) | 16 µg/mL (≈ 25.2 µM) | 4 µg/mL (≈ 6.31 µM) | 16 µg/mL (≈ 25.2 µM) | 8 µg/mL (≈ 12.6 µM) | 8 µg/mL (≈ 12.6 µM)
3 | C=C[C@]1(C)C[C@@H](OC(=O)Cn2cc(CN3CCN(c4ccc(OC)cc4)CC3)nn2)[C@]2(C)[C@H](C)CC[C@]3(CCC(=O)[C@H]32)[C@@H](C)[C@@H]1O [Compound 61, 22-(2-(4-(4-(4-Methoxyphenyl)-piperazin-1-yl)-methyl)-1H-1,2,3-triazol-1-yl)-22-deoxy pleuromutilin] | 4 µg/mL (≈ 6.31 µM) | 16 µg/mL (≈ 25.2 µM) | 8 µg/mL (≈ 12.6 µM) | 16 µg/mL (≈ 25.2 µM) | 4 µg/mL (≈ 6.31 µM) | 8 µg/mL (≈ 12.6 µM) | 4 µg/mL (≈ 6.31 µM) | 8 µg/mL (≈ 12.6 µM)
4 | C=C[C@]1(C)C[C@@H](OC(=O)Cn2cc(CN3CCN(c4ccccc4O)CC3)nn2)[C@]2(C)[C@H](C)CC[C@]3(CCC(=O)[C@H]32)[C@@H](C)[C@@H]1O [Compound 65, 22-(2-(4-(4-(2-Hydroxyphenyl)-piperazin-1-yl)-methyl)-1H-1,2,3-triazol-1-yl)-22-deoxy pleuromutilin] | 4 µg/mL (≈ 6.45 µM) | 8 µg/mL (≈ 12.9 µM) | 8 µg/mL (≈ 12.9 µM) | 16 µg/mL (≈ 25.8 µM) | 4 µg/mL (≈ 6.45 µM) | 8 µg/mL (≈ 12.9 µM) | 8 µg/mL (≈ 12.9 µM) | 8 µg/mL (≈ 12.9 µM)
5 | C=C[C@]1(C)C[C@@H](OC(=O)Cn2cc(CN3CCN(c4cccc(O)c4)CC3)nn2)[C@]2(C)[C@H](C)CC[C@]3(CCC(=O)[C@H]32)[C@@H](C)[C@@H]1O [Compound 66, 22-(2-(4-(4-(3-Hydroxyphenyl)-piperazin-1-yl)-methyl)-1H-1,2,3-triazol-1-yl)-22-deoxy pleuromutilin] | 4 µg/mL (≈ 6.45 µM) | 8 µg/mL (≈ 12.9 µM) | 8 µg/mL (≈ 12.9 µM) | 16 µg/mL (≈ 25.8 µM) | 8 µg/mL (≈ 12.9 µM) | 32 µg/mL (≈ 51.6 µM) | 8 µg/mL (≈ 12.9 µM) | 16 µg/mL (≈ 25.8 µM)
6 | C=C[C@]1(C)C[C@@H](OC(=O)Cn2cc(CN3CCN(c4ccc(O)cc4)CC3)nn2)[C@]2(C)[C@H](C)CC[C@]3(CCC(=O)[C@H]32)[C@@H](C)[C@@H]1O [Compound 67, 22-(2-(4-(4-(4-Hydroxyphenyl)-piperazin-1-yl)-methyl)-1H-1,2,3-triazol-1-yl)-22-deoxy pleuromutilin] | 8 µg/mL (≈ 12.9 µM) | 16 µg/mL (≈ 25.8 µM) | 32 µg/mL (≈ 51.6 µM) | 32 µg/mL (≈ 51.6 µM) | 16 µg/mL (≈ 25.8 µM) | > 32 µg/mL | 16 µg/mL (≈ 25.8 µM) | 32 µg/mL (≈ 51.6 µM)
7 | C=CC1(C)CC(OC(=O)Cn2cc(CN(C3CCCCC3)C3CCCCC3)nn2)C2(C)C(C)CCC3(CCC(=O)C32)C(C)C1O (stereo not shown) [Compound 81, 22-(2-(4-(Dicyclohexylamino)methyl)-1H-1,2,3-triazol-1-yl)-22-deoxy pleuromutilin] | 4 µg/mL (≈ 6.42 µM) | 8 µg/mL (≈ 12.8 µM) | 8 µg/mL (≈ 12.8 µM) | 16 µg/mL (≈ 25.7 µM) | 8 µg/mL (≈ 12.8 µM) | 32 µg/mL (≈ 51.4 µM) | 8 µg/mL (≈ 12.8 µM) | 16 µg/mL (≈ 25.7 µM)
8 | C=CC1(C)CC(OC(=O)Cn2cc(CN3CCOCC3)nn2)C2(C)C(C)CCC3(CCC(=O)C32)C(C)C1O (stereo not shown) [Compound 82, 22-(2-(4-(Morpholinomethyl)methyl)-1H-1,2,3-triazol-1-yl)-22-deoxy pleuromutilin] | 8 µg/mL (≈ 15.1 µM) | 8 µg/mL (≈ 15.1 µM) | 16 µg/mL (≈ 30.3 µM) | 32 µg/mL (≈ 60.5 µM) | 16 µg/mL (≈ 30.3 µM) | 32 µg/mL (≈ 60.5 µM) | 16 µg/mL (≈ 30.3 µM) | 16 µg/mL (≈ 30.3 µM)
